According to ChEMBL document CHEMBL3991601, “The target landscape of clinical kinase drugs” (Science, 2017):
pKd: −log10 of the molar value. The source made the active and inactive calls.

Experiments:
[1] = molecular target: Calcium/calmodulin-dependent protein kinase type II subunit delta (Homo sapiens, UniProt Q13557)
Focal adhesion kinase 1 = Focal adhesion kinase 1 (Homo sapiens, UniProt Q05397)
[2] = molecular target: DnaJ homolog subfamily A member 1 (Homo sapiens, UniProt P31689)
[3] = molecular target: Ribosomal protein S6 kinase alpha-3 (Homo sapiens, UniProt P51812)
Ribosomal protein S6 kinase alpha-3, sequence (P51812 whole entry): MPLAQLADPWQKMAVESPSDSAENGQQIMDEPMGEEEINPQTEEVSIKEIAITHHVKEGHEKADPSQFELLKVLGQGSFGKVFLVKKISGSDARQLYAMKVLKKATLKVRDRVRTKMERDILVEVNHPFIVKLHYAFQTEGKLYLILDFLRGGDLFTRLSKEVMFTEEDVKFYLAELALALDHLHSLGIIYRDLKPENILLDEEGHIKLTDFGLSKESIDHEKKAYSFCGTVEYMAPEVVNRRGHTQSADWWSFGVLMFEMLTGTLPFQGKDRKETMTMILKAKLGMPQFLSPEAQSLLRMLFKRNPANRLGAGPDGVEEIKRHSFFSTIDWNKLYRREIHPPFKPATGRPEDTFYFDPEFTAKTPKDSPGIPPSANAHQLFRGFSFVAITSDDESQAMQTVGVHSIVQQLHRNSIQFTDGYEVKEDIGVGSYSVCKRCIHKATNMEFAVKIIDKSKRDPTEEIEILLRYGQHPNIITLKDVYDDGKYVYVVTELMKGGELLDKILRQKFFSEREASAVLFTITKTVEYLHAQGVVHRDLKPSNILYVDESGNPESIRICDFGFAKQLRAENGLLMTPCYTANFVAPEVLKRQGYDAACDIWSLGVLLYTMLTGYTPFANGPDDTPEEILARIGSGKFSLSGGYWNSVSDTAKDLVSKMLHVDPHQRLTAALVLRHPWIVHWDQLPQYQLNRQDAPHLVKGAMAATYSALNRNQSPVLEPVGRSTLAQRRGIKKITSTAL

[4] = molecular target: T1, cGMP-dependent protein kinase 1 (Homo sapiens, UniProt Q13976)
T1 sequence (Q13976 whole entry): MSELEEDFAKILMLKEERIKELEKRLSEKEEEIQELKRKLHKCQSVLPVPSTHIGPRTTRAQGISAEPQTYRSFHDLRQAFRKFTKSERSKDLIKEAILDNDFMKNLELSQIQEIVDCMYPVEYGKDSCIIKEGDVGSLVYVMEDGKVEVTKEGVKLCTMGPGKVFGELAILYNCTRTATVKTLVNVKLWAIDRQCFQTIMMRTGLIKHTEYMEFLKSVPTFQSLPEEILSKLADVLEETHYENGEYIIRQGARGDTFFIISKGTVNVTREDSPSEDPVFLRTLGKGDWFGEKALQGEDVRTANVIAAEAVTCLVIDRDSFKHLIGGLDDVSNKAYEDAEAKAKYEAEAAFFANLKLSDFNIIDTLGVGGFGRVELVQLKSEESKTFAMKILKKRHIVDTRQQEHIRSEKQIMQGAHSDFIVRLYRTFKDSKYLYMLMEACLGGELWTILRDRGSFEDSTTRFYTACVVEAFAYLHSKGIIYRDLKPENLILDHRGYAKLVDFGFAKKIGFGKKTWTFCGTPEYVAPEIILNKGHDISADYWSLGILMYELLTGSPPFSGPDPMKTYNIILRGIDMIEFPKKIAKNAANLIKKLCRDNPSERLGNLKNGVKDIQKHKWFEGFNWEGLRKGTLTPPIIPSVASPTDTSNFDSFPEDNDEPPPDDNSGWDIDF

[5] = molecular target: T2, DNA replication licensing factor MCM4 (Homo sapiens, UniProt P33991)
T2 sequence (P33991 whole entry): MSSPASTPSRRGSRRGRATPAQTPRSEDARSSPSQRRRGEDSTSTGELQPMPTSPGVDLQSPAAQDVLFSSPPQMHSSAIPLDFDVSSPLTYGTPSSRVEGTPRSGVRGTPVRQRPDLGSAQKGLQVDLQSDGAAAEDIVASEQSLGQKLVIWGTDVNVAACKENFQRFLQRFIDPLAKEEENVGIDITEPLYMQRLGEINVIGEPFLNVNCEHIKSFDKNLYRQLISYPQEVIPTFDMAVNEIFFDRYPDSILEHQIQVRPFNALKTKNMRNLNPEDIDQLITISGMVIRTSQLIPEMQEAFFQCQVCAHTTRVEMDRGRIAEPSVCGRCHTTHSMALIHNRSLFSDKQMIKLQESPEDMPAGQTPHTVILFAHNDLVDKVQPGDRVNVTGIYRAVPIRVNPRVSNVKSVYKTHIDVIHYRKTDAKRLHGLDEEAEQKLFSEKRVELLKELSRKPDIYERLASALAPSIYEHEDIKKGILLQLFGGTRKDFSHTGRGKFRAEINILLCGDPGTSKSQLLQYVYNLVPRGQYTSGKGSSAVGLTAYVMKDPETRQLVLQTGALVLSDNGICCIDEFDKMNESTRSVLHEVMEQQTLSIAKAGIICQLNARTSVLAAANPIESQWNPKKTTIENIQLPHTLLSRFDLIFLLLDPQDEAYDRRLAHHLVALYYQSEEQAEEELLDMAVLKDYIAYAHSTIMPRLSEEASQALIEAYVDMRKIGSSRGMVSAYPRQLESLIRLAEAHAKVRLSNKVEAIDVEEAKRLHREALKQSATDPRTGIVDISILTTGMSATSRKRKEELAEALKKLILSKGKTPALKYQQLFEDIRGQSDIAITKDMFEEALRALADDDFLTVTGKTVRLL

[6] = molecular target: T3, Acyl-CoA dehydrogenase family member 10 (Homo sapiens, UniProt Q6JQN1)
T3 sequence (Q6JQN1 whole entry): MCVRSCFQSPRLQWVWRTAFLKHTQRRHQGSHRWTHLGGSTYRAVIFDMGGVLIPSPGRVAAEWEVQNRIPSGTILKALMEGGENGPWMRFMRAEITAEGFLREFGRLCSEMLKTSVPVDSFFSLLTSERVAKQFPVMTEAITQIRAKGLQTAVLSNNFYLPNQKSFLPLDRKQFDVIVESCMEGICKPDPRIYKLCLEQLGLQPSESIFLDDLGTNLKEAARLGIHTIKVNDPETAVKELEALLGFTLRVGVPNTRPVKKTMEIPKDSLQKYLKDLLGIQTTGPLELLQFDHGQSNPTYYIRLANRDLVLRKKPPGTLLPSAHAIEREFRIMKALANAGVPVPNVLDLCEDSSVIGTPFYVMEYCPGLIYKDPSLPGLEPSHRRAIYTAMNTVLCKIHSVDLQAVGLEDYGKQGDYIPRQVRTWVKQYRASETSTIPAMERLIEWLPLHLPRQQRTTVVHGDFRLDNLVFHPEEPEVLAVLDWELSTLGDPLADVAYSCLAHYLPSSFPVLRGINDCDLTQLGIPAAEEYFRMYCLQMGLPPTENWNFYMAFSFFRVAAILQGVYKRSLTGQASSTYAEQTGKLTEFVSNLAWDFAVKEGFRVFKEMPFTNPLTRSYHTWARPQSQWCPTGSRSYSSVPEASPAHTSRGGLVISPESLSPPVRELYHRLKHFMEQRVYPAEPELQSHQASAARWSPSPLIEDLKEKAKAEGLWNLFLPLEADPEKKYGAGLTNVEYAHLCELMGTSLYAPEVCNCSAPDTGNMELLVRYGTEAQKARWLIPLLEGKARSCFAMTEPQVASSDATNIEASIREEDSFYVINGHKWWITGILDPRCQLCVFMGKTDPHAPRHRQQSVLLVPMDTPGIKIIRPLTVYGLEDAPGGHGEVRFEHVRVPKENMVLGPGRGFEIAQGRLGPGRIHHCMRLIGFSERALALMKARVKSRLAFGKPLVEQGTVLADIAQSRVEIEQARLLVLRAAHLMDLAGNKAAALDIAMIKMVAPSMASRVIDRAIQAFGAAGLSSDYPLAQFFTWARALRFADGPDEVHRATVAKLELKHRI

[7] = molecular target: Mitogen-activated protein kinase 7 (Homo sapiens, UniProt Q13164)
Mitogen-activated protein kinase 7, sequence (Q13164 whole entry): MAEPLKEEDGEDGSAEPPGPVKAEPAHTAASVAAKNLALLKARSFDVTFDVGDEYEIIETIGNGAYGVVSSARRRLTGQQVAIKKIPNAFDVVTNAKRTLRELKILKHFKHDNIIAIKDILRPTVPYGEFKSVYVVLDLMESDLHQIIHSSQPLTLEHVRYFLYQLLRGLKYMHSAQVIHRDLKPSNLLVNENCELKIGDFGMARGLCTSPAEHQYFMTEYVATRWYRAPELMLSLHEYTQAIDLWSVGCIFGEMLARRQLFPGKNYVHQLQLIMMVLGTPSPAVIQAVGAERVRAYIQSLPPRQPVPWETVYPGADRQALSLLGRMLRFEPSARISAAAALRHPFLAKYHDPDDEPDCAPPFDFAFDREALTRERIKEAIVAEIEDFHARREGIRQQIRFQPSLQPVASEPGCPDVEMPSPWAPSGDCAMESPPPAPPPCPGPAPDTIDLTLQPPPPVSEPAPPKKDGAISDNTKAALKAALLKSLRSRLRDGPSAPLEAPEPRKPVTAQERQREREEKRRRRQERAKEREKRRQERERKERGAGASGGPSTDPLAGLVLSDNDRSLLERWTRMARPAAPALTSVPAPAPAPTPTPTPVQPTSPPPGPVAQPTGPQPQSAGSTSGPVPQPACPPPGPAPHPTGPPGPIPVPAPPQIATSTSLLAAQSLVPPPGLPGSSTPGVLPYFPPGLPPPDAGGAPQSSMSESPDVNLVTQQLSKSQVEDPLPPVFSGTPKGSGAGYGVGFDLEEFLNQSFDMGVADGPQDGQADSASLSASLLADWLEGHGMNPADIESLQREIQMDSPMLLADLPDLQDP
Also: in the data inactive means no Kd found up to 30 µM.

Focal adhesion kinase 1, sequence (Q05397 whole entry): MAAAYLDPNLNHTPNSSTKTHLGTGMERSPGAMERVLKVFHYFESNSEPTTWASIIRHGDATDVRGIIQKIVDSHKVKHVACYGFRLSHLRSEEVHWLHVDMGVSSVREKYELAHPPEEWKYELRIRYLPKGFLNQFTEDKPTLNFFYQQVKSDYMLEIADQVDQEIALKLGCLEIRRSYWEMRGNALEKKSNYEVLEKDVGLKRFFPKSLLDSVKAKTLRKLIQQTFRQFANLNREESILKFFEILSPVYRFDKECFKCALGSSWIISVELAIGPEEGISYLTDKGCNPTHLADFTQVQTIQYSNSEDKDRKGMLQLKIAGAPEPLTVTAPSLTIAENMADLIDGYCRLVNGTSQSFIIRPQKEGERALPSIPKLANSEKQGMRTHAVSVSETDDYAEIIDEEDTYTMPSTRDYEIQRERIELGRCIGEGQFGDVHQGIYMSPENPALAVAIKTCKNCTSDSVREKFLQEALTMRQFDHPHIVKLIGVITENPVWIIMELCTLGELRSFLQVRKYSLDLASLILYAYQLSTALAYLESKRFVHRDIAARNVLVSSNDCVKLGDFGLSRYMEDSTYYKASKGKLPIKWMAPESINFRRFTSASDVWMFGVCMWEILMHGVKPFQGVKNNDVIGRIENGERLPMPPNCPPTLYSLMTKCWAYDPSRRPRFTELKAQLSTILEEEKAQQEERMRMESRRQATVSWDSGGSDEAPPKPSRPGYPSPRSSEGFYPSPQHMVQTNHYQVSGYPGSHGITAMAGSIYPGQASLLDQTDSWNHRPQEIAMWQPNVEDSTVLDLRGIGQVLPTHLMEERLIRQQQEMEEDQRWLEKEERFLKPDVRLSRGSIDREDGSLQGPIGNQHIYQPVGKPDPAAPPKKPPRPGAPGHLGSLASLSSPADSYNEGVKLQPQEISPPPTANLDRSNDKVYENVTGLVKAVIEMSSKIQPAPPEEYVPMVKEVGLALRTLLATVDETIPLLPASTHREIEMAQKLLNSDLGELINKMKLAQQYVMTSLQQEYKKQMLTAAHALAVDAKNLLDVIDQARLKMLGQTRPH
DnaJ homolog subfamily A member 1, sequence (P31689 whole entry): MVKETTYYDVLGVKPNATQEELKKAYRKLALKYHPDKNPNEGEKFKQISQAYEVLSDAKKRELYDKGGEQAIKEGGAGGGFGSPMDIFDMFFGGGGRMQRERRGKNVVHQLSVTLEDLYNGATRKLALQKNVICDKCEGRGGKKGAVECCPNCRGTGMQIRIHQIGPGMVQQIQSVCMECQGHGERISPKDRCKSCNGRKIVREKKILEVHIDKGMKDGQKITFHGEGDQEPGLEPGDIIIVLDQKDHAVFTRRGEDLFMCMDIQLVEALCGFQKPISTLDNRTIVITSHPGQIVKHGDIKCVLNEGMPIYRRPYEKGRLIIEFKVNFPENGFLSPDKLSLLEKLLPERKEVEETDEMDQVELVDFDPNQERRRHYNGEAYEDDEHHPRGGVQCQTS
Calcium/calmodulin-dependent protein kinase type II subunit delta, sequence (Q13557 whole entry): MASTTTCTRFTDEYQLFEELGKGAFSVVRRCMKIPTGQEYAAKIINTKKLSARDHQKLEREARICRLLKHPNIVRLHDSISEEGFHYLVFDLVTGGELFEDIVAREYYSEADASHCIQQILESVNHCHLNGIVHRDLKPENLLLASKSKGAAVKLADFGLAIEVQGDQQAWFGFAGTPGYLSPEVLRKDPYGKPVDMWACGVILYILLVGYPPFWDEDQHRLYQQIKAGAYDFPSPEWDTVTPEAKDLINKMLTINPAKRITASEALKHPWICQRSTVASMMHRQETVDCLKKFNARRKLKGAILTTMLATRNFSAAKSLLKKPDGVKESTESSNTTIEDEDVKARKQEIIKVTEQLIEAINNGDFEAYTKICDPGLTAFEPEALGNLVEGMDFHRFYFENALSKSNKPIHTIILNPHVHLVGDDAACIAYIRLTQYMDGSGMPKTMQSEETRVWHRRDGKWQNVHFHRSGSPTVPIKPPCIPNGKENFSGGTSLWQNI

Row | SMILES | Kd [1] | Kd (Focal adhesion kinase 1) | Kd [2] | Kd [3] | Kd [4] | Kd [5] | Kd [6] | Kd [7] | pKd [6]
1 | Cc1cc([C@@H](C)Nc2ccccc2C(=O)O)c2nc(N3CCOCC3)cc(=O)n2c1 [AZD-6482] | > 30 µM (inactive) | > 30 µM (inactive) | > 30 µM (inactive) | > 30 µM (inactive) | > 30 µM (inactive) | > 30 µM (inactive) | > 30 µM (inactive) | > 30 µM (inactive) | 
2 | Cc1cc(Nc2cc(N3CCN(C)CC3)nc(/C=C/c3ccccc3)n2)n[nH]1 [ENMD-2076] |  |  | > 30 µM (inactive) |  |  | > 30 µM (inactive) | > 30 µM (inactive) | > 30 µM (inactive) | 
3 | O=C(Nc1cccc(Cl)c1)Nc1ncc(CCNc2ncnc3ccsc23)s1 [SNS-314] |  |  | > 30 µM (inactive) |  |  | > 30 µM (inactive) | > 30 µM (inactive) |  | 
4 | CCN1CCN(Cc2ccc(-c3cc4c(N[C@H](C)c5ccccc5)ncnc4[nH]3)cc2)CC1 [AEE-788] | > 30 µM (inactive) | > 30 µM (inactive) | > 30 µM (inactive) | > 30 µM (inactive) | > 30 µM (inactive) | > 30 µM (inactive) |  | > 30 µM (inactive) | 
5 | O=C1NC(=O)/C(=C/c2ccc3nccc(-c4ccncc4)c3c2)S1 [GSK-1059615] | > 30 µM (inactive) | > 30 µM (inactive) | > 30 µM (inactive) | > 30 µM (inactive) | > 30 µM (inactive) | > 30 µM (inactive) |  | > 30 µM (inactive) | 
6 | COc1cc(OC)c(/C=C/S(=O)(=O)Cc2ccc(OC)c(NCC(=O)O)c2)c(OC)c1 [RIGOSERTIB] | > 30 µM (inactive) | > 30 µM (inactive) | > 30 µM (inactive) | > 30 µM (inactive) | > 30 µM (inactive) |  | > 30 µM (inactive) | > 30 µM (inactive) | 
7 | C1=C/COCc2cc(ccc2OCCN2CCCC2)Nc2nccc(n2)-c2cccc(c2)COC/1 [PACRITINIB] | > 30 µM (inactive) | > 30 µM (inactive) | > 30 µM (inactive) | > 30 µM (inactive) | 1.52 µM (active) |  | > 30 µM (inactive) |  | 
8 | N[C@@H]1CCCN(c2c(/C=C3\SC(=O)NC3=O)cccc2-c2ccccc2)C1 | > 30 µM (inactive) | > 30 µM (inactive) | > 30 µM (inactive) | > 30 µM (inactive) | > 30 µM (inactive) | > 30 µM (inactive) | > 30 µM (inactive) |  | 
9 | CCc1cnn2c(NCc3ccc[n+]([O-])c3)cc(N3CCCC[C@H]3CCO)nc12 [DINACICLIB] | > 30 µM (inactive) |  | > 30 µM (inactive) |  | > 30 µM (inactive) | > 30 µM (inactive) | > 30 µM (inactive) | > 30 µM (inactive) | 
10 | Cc1nc(N)sc1-c1ccnc(Nc2ccc(N3CCOCC3)cc2)n1 [CYC-116] |  | 13 µM (active) | > 30 µM (inactive) |  |  | > 30 µM (inactive) |  | > 30 µM (inactive) | 6.15
11 | Cc1cn(-c2cc(NC(=O)c3ccc(C)c(Nc4nccc(-c5cccnc5)n4)c3)cc(C(F)(F)F)c2)cn1 [NILOTINIB] |  |  | > 30 µM (inactive) |  |  | > 30 µM (inactive) | > 30 µM (inactive) |  | 
12 | OCCn1cc(-c2cnc3nnn(Cc4ccc5ncccc5c4)c3n2)cn1 [PF-04217903] | > 30 µM (inactive) |  | > 30 µM (inactive) |  | > 30 µM (inactive) | > 30 µM (inactive) | > 30 µM (inactive) | > 30 µM (inactive) | 
13 | Cn1cc(-c2ccc(F)c(C(F)(F)F)c2)nc1C1CCN(c2ncnc3[nH]ncc23)CC1 [LY-2584702] | > 30 µM (inactive) | > 30 µM (inactive) | > 30 µM (inactive) | > 30 µM (inactive) | > 30 µM (inactive) |  | > 30 µM (inactive) | > 30 µM (inactive) | 

Further lines, results first:

Row | Kd [1] | Kd (Focal adhesion kinase 1) | Kd [2] | Kd [3] | Kd [4] | Kd [5] | Kd [6] | Kd [7] | pKd [6] | SMILES
14 | > 30 µM (inactive) | > 30 µM (inactive) | > 30 µM (inactive) | > 30 µM (inactive) | > 30 µM (inactive) | > 30 µM (inactive) | > 30 µM (inactive) | > 30 µM (inactive) |  | C[C@@H](Nc1cc(F)cc(F)c1)c1cc(C(=O)N(C)C)cc2c(=O)cc(N3CCOCC3)oc12 [AZD-8186]
15 | 0.704 µM (active) | 0.074 µM (active) | > 30 µM (inactive) | > 30 µM (inactive) | > 30 µM (inactive) | > 30 µM (inactive) |  | > 30 µM (inactive) |  | COc1cc(N2CCC(N3CCN(C)CC3)CC2)ccc1Nc1ncnc(Nc2ccccc2S(=O)(=O)C(C)C)n1 [ASP-3026]
16 |  |  | > 30 µM (inactive) |  |  | > 30 µM (inactive) |  |  |  | Nc1nc(N)c2nc(-c3cccc(O)c3)c(-c3cccc(O)c3)nc2n1 [TG100-115]
17 |  |  | > 30 µM (inactive) |  |  | > 30 µM (inactive) | > 30 µM (inactive) |  |  | CCn1c(-c2nonc2N)nc2c(C#CC(C)(C)O)ncc(OC[C@H]3CCCNC3)c21 [GSK-690693]
18 |  |  | > 30 µM (inactive) |  |  | > 30 µM (inactive) | > 30 µM (inactive) |  |  | CN1CCN(c2ccc3nc(-c4c(N)c5c(F)cccc5[nH]c4=O)[nH]c3c2)CC1 [DOVITINIB]
19 | > 30 µM (inactive) | > 30 µM (inactive) | > 30 µM (inactive) | > 30 µM (inactive) | > 30 µM (inactive) |  | > 30 µM (inactive) | > 30 µM (inactive) |  | Cn1cc(-c2ccc3nnc(C(F)(F)c4ccc5ncccc5c4)n3n2)cn1 [JNJ-38877605]
20 | > 30 µM (inactive) | > 30 µM (inactive) | > 30 µM (inactive) | > 30 µM (inactive) | > 30 µM (inactive) | > 30 µM (inactive) |  | > 30 µM (inactive) |  | Cn1ncc(Cl)c1-c1cc(C(=O)N[C@H](CN)Cc2cccc(F)c2)sc1Cl [AFURESERTIB]
21 | > 30 µM (inactive) | > 30 µM (inactive) | > 30 µM (inactive) | > 30 µM (inactive) | > 30 µM (inactive) | > 30 µM (inactive) |  | > 30 µM (inactive) |  | CNC(=O)c1ccc(C)c(-n2c(C)cc(OCc3ccc(F)cc3F)c(Br)c2=O)c1 [PH-797804]
